{"source": "patent US20110054033A1", "about": "“METHODS OF USING ABSCISIC ACID FOR AMELIORATING HYPERTENSION AND VASCULAR INFLAMMATION” (Virginia Tech Intellectual Properties, Inc., priority 2009, published 2011)", "test_system": "human aorta endothelial cells (HAECs)", "assay": "Intracellular cAMP in human aorta endothelial cells", "format": "cell-based", "conditions": "tested 0.01-10 μM", "method": "FIG. 7 are graphs showing effect of ABA on (A) cAMP; (B) NO; and (C) eNOS. (A) Confluent human aortic endothelial cell (HAEC) were serum-starved using HBSS buffer for 30 min and then stimulated with various concentrations of ABA (0, 0.01, 0.1, 1, 10 μM) or Forskolin (1 μM) for […]. After removing supernatant, cells were lysated with 0.1 M HCL for 20 minutes to measure non-acetylated cAMP. (B) Confluent HAEC were serum-starved using HBSS buffer for 30 minutes and then stimulated with various concentrations of ABA (0, 0.001, 0.01, 0.1, 1, 10 μM) for 15 minutes to measure NO. Results (pmol/ml) from four independent experiments are depicted. […]\nConfluent human aorta endothelial cells (HAECs) at passage 3 maintained with EGM-2 media (Clonetics, Walkerville, Md.) were adapted to Hank's buffered salt solution buffer for 30 min and then stimulated with ABA or forskolin (1 μM) for 10 min. For intracellular assessment of cAMP, the cells were harvested into 0.1 M HCL and the lysates were obtained by sonication and centrifugation. cAMP the lysates were determined by using an EIA kit (Assay Designs, Ann Arbor, Mich.) and results were obtained from four independent experiments. Nitric oxide levels in the cell culture supernatants were determined with the Nitric Oxide Assay Kit according to manufacturer's instructions (Assay Designs). […]", "data": [{"compound": "CC1=CC(=O)CC(C)(C)C1(O)/C=C/C(C)=C\\C(=O)O", "note": "(racemic) [ABA, abscisic acid]", "values": [{"measurement": "Dose inducing maximal effect on intracellular cAMP", "value": 1, "unit": "µM"}, {"measurement": "Lowest dose significantly increasing intracellular cAMP concentrations", "value": 0.1, "unit": "µM"}]}]}
